From patent publication US10550100B2, “5-[3-[piperzin-1-yl]-3-oxo-propyl]-imidazolidine-2,4-dione derivatives as ADAMTS 4 and 5 inhibitors for treating E.G. osteoarthritis” (GALAPAGOS NV, priority 2016, dated 2020) come the findings set out here.

What all share (type): biochemical
In one assay the target is human TACE (Homo sapiens (Human), UniProt P78536). The assay is described as follows: hTACE 5FAM-[…]-5TAMRA cleavage assay. Particulars: 75 min at room temperature, read-out: hTACE potency IC50. As for the experimental part: Finally, the fluorescence is read on the Envision (Perkin Elmer) after an incubation of 75 min at room temperature (Excitation 485 nm, Emission 530).
human TACE, sequence (P78536 215-671): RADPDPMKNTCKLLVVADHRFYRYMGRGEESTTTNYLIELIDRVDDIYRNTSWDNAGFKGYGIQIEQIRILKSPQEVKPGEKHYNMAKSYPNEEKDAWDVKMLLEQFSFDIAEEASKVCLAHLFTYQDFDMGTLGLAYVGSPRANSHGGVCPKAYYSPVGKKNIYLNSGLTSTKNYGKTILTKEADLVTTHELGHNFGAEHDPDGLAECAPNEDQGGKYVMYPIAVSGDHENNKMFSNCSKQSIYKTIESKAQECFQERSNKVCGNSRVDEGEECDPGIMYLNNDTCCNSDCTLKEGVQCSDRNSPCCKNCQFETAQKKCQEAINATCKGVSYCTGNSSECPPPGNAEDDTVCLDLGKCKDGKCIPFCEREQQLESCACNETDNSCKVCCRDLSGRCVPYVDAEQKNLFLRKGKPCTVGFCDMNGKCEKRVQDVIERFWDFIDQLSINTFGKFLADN

Assay [1] deals with T1, human MMP13 (Homo sapiens (Human), UniProt P45452). The assay is described as follows: hMMP13 390 MMP FRET Substrate I cleavage assay, Protocol 2. To be noted: Protocol 2, 390 MMP FRET Substrate I; read-out: hMMP-13 potency IC50. The procedure:
(§1) The basis for the assay is the cleavage of the substrate 390 MMP FRET Substrate I (Anaspec Cat# AS-27076) by human MMP13 (Chemicon, Cat#CC068).
(§2) Human MMP13 is preactivated by incubated the enzyme in the same buffer complemented with 1 mM freshly prepared p-Aminophenylmercuric acetate (AMPA) for 1 h at 37° C.
(§3) The reaction is initiated by adding to the assay plate 390 MMP FRET Substrate I (10 μL, 2.5 μM) in the same buffer.
(§4) Finally, the fluorescence is read on the Envision (Perkin Elmer) after an incubation of 45 min at room temperature (Excitation 485 nm, Emission 530).

The target in a further assay is human MMP14 (Homo sapiens (Human), UniProt P50281). The assay is described as follows: hMMP14 390 MMP FRET Substrate I cleavage assay. Particulars: 60 min at room temperature, read-out: hMMP-14 potency IC50. The procedure: The basis for the assay is the cleavage of the substrate 390 MMP FRET Substrate I (Anaspec Cat# AS-27076) by human MMP14 (Biomol, Cat#SE-259).
as §3
Finally, the fluorescence is read on the Envision (Perkin Elmer) after an incubation of 60 min at room temperature (Excitation 485 nm, Emission 530).

A further assay addresses human ADAMTS6 (Homo sapiens (Human), UniProt Q9UKP5). The assay is described as follows: hADAMTS-6 520 MMP FRET substrate XII cleavage assay. Particulars: 37° C. for 2 h, read-out: hADAMTS-6 potency IC50. An excerpt:
The IC50 value for test compounds can be determined in a fluorescent based protease assay.
The basis for the assay is the cleavage of the substrate 520 MMP FRET substrate XII by human ADAMTS6.
The substrate contains sequence Arg-Pro-Lys-Pro-Tyr-Ala-Nva-Trp-Met-Lys (SEQ ID NO: 7) with attached a fluorescent probe and a quencher. Without ADAMTS6, the emission of the probe is quenched. If the substrate is cleaved by ADAMTS6, the emission of the probe is not quenched anymore. Inhibition of ADAMTS6 activity, will result in a decrease of the signal.
To perform the assay, 4 μL of a dilution series of compound in water, starting from 20 μM highest concentration, 1/5 dilution, is added to the wells. 2 ng ADAMTS6 enzyme is diluted in 25 mM Tris pH8.0, 0.05% CHAPS, 2.5 mM CaCl2 in a total volume of 26 μL (final concentration 0.73 nM). The reaction is started by addition of 10 μL of 1 μM 520 MMP FRET Substrate XII (final concentration, diluted in same buffer as described above) and the mixture is incubated at 37° C. for 2 h. […] After this incubation, cleavage of the substrate is measured using the Envision (Perkin Elmer, exc485/em530).

For another assay, the target named is human ADAMTS-5 (Homo sapiens (Human), UniProt Q9UNA0). The assay is described as follows: hADAMTS-5 TBIS-1 cleavage assay, Protocol 3. Particulars: Protocol 3, TBIS-1 substrate, 90 min at 37° C.; read-out: hADAMTS-5 potency IC50. The procedure: The reaction is initiated by adding to the assay plate TBIS-1 (10 μL, 4.5 μM, Anaspec) in the same buffer.
human ADAMTS-5, sequence (Q9UNA0 262-930): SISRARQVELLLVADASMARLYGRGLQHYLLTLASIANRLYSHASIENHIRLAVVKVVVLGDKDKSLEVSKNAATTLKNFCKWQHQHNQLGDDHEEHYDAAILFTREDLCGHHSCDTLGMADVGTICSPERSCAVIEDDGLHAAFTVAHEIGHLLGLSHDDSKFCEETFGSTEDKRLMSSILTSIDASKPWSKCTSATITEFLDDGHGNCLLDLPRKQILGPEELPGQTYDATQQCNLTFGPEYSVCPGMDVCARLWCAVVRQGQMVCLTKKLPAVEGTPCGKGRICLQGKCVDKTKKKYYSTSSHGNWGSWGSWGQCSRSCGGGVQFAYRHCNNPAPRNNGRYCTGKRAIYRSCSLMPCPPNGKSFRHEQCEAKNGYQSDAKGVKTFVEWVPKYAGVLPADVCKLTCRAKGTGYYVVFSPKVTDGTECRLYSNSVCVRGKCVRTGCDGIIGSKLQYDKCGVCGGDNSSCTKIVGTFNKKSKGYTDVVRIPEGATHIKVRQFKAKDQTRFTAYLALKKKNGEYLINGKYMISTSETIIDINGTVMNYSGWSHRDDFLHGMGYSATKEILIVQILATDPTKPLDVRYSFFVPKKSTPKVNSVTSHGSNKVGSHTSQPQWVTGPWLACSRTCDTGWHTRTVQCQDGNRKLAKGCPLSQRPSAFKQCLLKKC
Finally, the fluorescence is read on the Envision (Perkin Elmer) after an incubation of 90 min at 37° C. (Excitation 485 nm, emission 530).

Assay [2] concerns the target T1, human MMP13. As to the kind of experiment: hMMP13 390 MMP FRET Substrate I cleavage assay, Protocol 1. Particulars: Protocol 1, 390 MMP FRET Substrate I; read-out: hMMP-13 potency IC50. The procedure: as §1, §2, §3, §4

Molecules are shown by their SMILES. Where two headings read alike, the source gives them in different places. Bounds are passed on as bounds.

human ADAMTS6, sequence (Q9UKP5 other isoform, or with tags, fused parts or gaps): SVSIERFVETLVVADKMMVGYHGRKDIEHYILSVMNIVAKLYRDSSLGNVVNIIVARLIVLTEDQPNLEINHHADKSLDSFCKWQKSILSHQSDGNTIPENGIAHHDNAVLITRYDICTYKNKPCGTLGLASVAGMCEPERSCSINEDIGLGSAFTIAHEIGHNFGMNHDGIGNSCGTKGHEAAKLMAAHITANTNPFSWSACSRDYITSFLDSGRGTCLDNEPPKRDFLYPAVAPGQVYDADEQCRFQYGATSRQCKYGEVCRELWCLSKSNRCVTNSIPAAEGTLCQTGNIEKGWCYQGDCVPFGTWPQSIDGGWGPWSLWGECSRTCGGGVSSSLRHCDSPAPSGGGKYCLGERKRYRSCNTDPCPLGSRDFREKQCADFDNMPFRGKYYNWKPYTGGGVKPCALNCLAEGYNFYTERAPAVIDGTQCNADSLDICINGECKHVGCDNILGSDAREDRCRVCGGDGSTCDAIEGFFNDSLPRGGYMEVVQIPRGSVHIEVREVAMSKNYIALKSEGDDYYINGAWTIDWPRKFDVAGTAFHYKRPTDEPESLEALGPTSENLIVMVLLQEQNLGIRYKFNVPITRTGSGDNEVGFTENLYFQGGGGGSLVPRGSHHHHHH

On to `COc1cc(Cl)ccc1C1CCN(C(=O)[C@@H](C)C[C@@]2(C)NC(=O)NC2=O)CC1` (stereo in doubt) [Cpd 97, 5-[3-[4-(4-chloro-2-methoxy-phenyl)-1-piperidyl]-2-methyl-3-oxo-propyl]-5-methyl-imidazolidine-2,4-dione], for which the IC50 at human TACE (5FAM-LAQAVRSSSRK-5TAMRA) was greater than 100 nM; at human MMP13 [1], greater than 100 nM; on human MMP14, greater than 100 nM; at human ADAMTS6 it was 0.001 to 25 nM.
With `COC[C@]1(C[C@H](C)C(=O)N2CCC(c3cc(F)c(Cl)c(OC)c3)CC2)NC(=O)NC1=O` (stereo in doubt) [Cpd 103, 5-[3-[4-(4-chloro-3-fluoro-5-methoxy-phenyl)-1-piperidyl]-2-methyl-3-oxo-propyl]-5-(methoxymethyl) imidazolidine-2,4-dione], the IC50 is 50 to 100 nM on human TACE (5FAM-[…]-5TAMRA); greater than 100 nM at human MMP13 [1]; 0.001 to 25 nM on human ADAMTS-5; greater than 100 nM at human MMP14; 0.001 to 25 nM at human ADAMTS6.
In the case of `CCc1cc(C2CCN(C(=O)[C@@H](C)C[C@@]3(COC)NC(=O)NC3=O)CC2)cc(OC)c1Cl` (stereo in doubt) [Cpd 104, 5-[3-[4-(4-chloro-3-ethyl-5-methoxy-phenyl)-1-piperidyl]-2-methyl-3-oxo-propyl]-5-(methoxymethyl) imidazolidine-2,4-dione], the half-maximal inhibitory concentration (IC50) on human TACE (5FAM-[…]-5TAMRA) was 50 to 100 nM; on human MMP13 [1] it was greater than 100 nM; at human ADAMTS-5, 25 to 50 nM; on human MMP14, greater than 100 nM; on human ADAMTS6, 0.001 to 25 nM.
As to `COC[C@]1(C[C@H](C)C(=O)N2CCC(c3cc(Cl)c(F)cc3OC)CC2)NC(=O)NC1=O` (stereo in doubt) [Cpd 107, 5-[3-[4-(5-chloro-4-fluoro-2-methoxy-phenyl)-1-piperidyl]-2-methyl-3-oxo-propyl]-5-(methoxymethyl) imidazolidine-2,4-dione], the IC50 at human TACE (5FAM-[…]-5TAMRA) was 50 to 100 nM; at human MMP13 [1], greater than 100 nM; on human MMP14, greater than 100 nM; at human ADAMTS6, 0.001 to 25 nM.
For the molecule `COC[C@]1(C[C@H](C)C(=O)N2CCC(c3ccc(Cl)cc3OC)CC2)NC(=O)NC1=O` (stereo in doubt) [Cpd 108, 5-[3-[4-(4-chloro-2-methoxy-phenyl)-1-piperidyl]-2-methyl-3-oxo-propyl]-5-(methoxymethyl) imidazolidine-2,4-dione], the IC50 at human TACE (5FAM-[…]-5TAMRA) is 50 to 100 nM; at human MMP13 [1], greater than 100 nM; at human MMP14, greater than 100 nM; at human ADAMTS6, 0.001 to 25 nM.
`COC[C@]1(C[C@H](C)C(=O)N2CCC(c3cc(F)c(Cl)cc3OC)CC2)NC(=O)NC1=O` (stereo in doubt) [Cpd 109, 5-[3-[4-(4-chloro-5-fluoro-2-methoxy-phenyl)-1-piperidyl]-2-methyl-3-oxo-propyl]-5-(methoxymethyl) imidazolidine-2,4-dione]: the IC50 is 50 to 100 nM at human TACE (5FAM-[…]-5TAMRA), greater than 100 nM on human MMP13 [1], greater than 100 nM at human MMP14 and 0.001 to 25 nM on human ADAMTS6.
Turning to `COc1cc(F)c(Cl)cc1C1CCN(C(=O)[C@@H](C)C[C@@]2(C)NC(=O)NC2=O)CC1` (stereo in doubt) [Cpd 111, 5-[3-[4-(5-chloro-4-fluoro-2-methoxy-phenyl)-1-piperidyl]-2-methyl-3-oxo-propyl]-5-methyl-imidazolidine-2,4-dione], the IC50 on human TACE (5FAM-[…]-5TAMRA) is 50 to 100 nM; at human MMP13 [1], greater than 100 nM; on human MMP14, greater than 100 nM; on human ADAMTS6, 0.001 to 25 nM.
For the molecule `COc1cc(C2CCN(C(=O)[C@@H](C)C[C@@]3(C)NC(=O)NC3=O)CC2)cc(C)c1Cl` (stereo in doubt) [Cpd 113, 5-[3-[4-(4-chloro-3-methoxy-5-methyl-phenyl)-1-piperidyl]-2-methyl-3-oxo-propyl]-5-methyl-imidazolidine-2,4-dione], the concentration for half-maximal inhibition (IC50) on human TACE (5FAM-[…]-5TAMRA) was 50 to 100 nM; on human MMP13 [1], greater than 100 nM; on human ADAMTS-5, 25 to 50 nM; at human MMP14, greater than 100 nM; at human ADAMTS6 it was 0.001 to 25 nM.
In the case of `COc1cc(Cl)ccc1C1CCN(C(=O)CCC2(C)NC(=O)NC2=O)CC1` (stereo not drawn) [Cpd 44, 5-(3-(4-(4-chloro-2-methoxyphenyl)piperidin-1-yl)-3-oxopropyl)-5-methyl-imidazolidine-2,4-dione], the IC50 on human TACE (5FAM-LAQAVRSSSRK-5TAMRA) was greater than 100 nM; on human MMP13 [2] it was greater than 100 nM; at human ADAMTS-5 it was greater than 100 nM; on human MMP14, greater than 100 nM; at human ADAMTS6, 0.001 to 25 nM.
Turning to `O=C1NC(=O)[C@@H](CCC(=O)N2CCC(c3ccc(Cl)c(F)c3)CC2)N1` [Cpd 51, (R)-5-(3-(4-(4-chloro-3-fluorophenyl)piperidin-1-yl)-3-oxopropyl) imidazolidine-2,4-dione], the IC50 on human TACE (5FAM-LAQAVRSSSRK-5TAMRA) was greater than 100 nM; at human MMP13 [2], greater than 100 nM; at human ADAMTS-5, greater than 100 nM; at human MMP14, greater than 100 nM; on human ADAMTS6, 50 to 100 nM.
With `CC1(CCC(=O)N2CCC(c3ccc(Cl)c(F)c3)CC2)NC(=O)NC1=O` (stereo not drawn) [Cpd 54, 5-(3-(4-(4-chloro-3-fluorophenyl)piperidin-1-yl)-3-oxopropyl)-5-methyl-imidazolidine-2,4-dione], the 50% inhibitory concentration (IC50) was greater than 100 nM at human TACE (5FAM-LAQAVRSSSRK-5TAMRA); greater than 100 nM on human MMP13 [2]; greater than 100 nM at human ADAMTS-5; greater than 100 nM on human MMP14; 50 to 100 nM on human ADAMTS6.
As for `COc1cc(C2CCN(C(=O)CCC3(C)NC(=O)NC3=O)CC2)ccc1F` (stereo not drawn) [Cpd 55, 5-(3-(4-(4-fluoro-3-methoxyphenyl)piperidin-1-yl)-3-oxopropyl)-5-methyl-imidazolidine-2,4-dione], the 50% inhibitory concentration (IC50) on human TACE (5FAM-LAQAVRSSSRK-5TAMRA) is greater than 100 nM; at human MMP13 [2], greater than 100 nM; on human ADAMTS-5 it was greater than 100 nM; at human MMP14 it was greater than 100 nM; at human ADAMTS6, 50 to 100 nM.
For `COc1cc(Cl)cc(C2CCN(C(=O)CC[C@@]3(C)NC(=O)NC3=O)CC2)c1` [Cpd 66, (R)-5-(3-(4-(3-chloro-5-methoxyphenyl)piperidin-1-yl)-3-oxopropyl)-5-methyl-imidazolidine-2,4-dione], the IC50 on human TACE (5FAM-[…]-5TAMRA) is 25 to 50 nM; on human MMP13 [1] it was greater than 100 nM; on human ADAMTS-5 it was greater than 100 nM; on human ADAMTS6, 0.001 to 25 nM.
Turning to `COc1cc(Cl)cc(C2CCN(C(=O)CC[C@H]3NC(=O)NC3=O)CC2)c1` [Cpd 67, (R)-5-(3-(4-(3-chloro-5-methoxyphenyl)piperidin-1-yl)-3-oxopropyl) imidazolidine-2,4-dione], the IC50 at human MMP13 [1] and on human ADAMTS-5 was greater than 100 nM in each case.
In the case of `COc1cc(C2CCN(C(=O)CC[C@@]3(C)NC(=O)NC3=O)CC2)cc(F)c1Cl` [Cpd 84, (5R)-5-[3-[4-(4-chloro-3-fluoro-5-methoxy-phenyl)-1-piperidyl]-3-oxo-propyl]-5-methyl-imidazolidine-2,4-dione], the IC50 on human TACE (5FAM-[…]-5TAMRA) is 50 to 100 nM; at human MMP13 [1] it was greater than 100 nM; at human MMP14, greater than 100 nM; on human ADAMTS6, 0.001 to 25 nM.
For `COc1cc(C2CCN(C(=O)CC[C@@]3(C)NC(=O)NC3=O)CC2)ccc1Cl` [Cpd 85, (5R)-5-[3-[4-(4-chloro-3-methoxy-phenyl)-1-piperidyl]-3-oxo-propyl]-5-methyl-imidazolidine-2,4-dione], the IC50 at human TACE (5FAM-[…]-5TAMRA) is 50 to 100 nM; at human MMP13 [1], greater than 100 nM; at human MMP14, greater than 100 nM; at human ADAMTS6 it was 0.001 to 25 nM.

For orientation: IC50 means the concentration that gives 50% inhibition.
